In patent publication US20200345725A1, “Methods and Compositions for Treating Cancer” (Omeros Corporation, priority 2019, published 2020):
Marks after values point to notes of the source that are not given here. One block for each molecule: values may come before it.

How the values were obtained:
[1] = target: GPR174 (Homo sapiens, UniProt Q9BXC1); experiment: CRE-Luc reporter Gs signaling assay with GPR174; assay type: cell-based; parameters: host or cells: HEK293 or CHO cell lines (ATCC); conditions: pCRE-Luc reporter; for EC50: multiple values = separate experiments
Chain of GPR174 (Q9BXC1 whole entry): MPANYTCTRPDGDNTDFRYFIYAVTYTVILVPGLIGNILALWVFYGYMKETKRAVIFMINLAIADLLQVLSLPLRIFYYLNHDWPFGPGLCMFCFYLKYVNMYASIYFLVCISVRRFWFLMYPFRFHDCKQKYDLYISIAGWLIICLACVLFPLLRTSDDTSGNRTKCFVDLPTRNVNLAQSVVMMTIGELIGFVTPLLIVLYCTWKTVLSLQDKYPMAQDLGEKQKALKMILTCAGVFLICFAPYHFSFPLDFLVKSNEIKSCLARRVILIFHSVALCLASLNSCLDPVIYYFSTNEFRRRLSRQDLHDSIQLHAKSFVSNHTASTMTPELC

[2] = tested on: human PBMCs; experiment: Th1 cytokines in supernatants of stimulated human PBMC, GPR174 inhibitor with adenosine pathway inhibitors (Examples 15, 18-22); assay type: cell-based; conditions: for IFN-γ, ratio relative to vehicle control (Veh column) / IL-2, ratio relative to vehicle control (Veh column) / TNF, ratio relative to vehicle control (Veh column): Cmpd 10 1, ZM 0.1, PBF 0.1, SCH 0.2 μM, ADA 0.75 μg/mL; for IFN-γ, ratio relative to vehicle control (MRS) / IL-2, ratio relative to vehicle control (MRS column) / TNF, ratio relative to vehicle control (MRS column): MRS-1754 1 μM added to the agent(s) of the label, label MRS = MRS alone
Method: Human PBMCs, obtained from a human volunteer donor, were dispensed at density of 1×10^6 cells/well in a 96-well flat-bottom plate and were stimulated in triplicate with 1 μg/mL anti-CD3 antibody (UCHT1) and 0.1 μg/mL anti-CD28 antibody (CD28.2) in the presence of:
Supernatants from these cells were collected at 24 hours post-stimulation and the levels of IFN-γ were determined by ELISA assay. Statistical analysis was carried out using one-way ANOVA with Tukey's post-hoc multiple comparison's correction.
Human PBMCs, obtained from a human volunteer donor (donor 1), were dispensed in X-vivo15 media (Lonza) supplemented with Glutamax, penicillin and streptomycin, at density of 1×10^6 cells/well in a 96-well flat-bottom plate and were stimulated with 1 μg/mL anti-CD3 antibody (UCHT1) and 0.1 μg/mL anti-CD28 antibody (CD28.2) in the presence of:
Supernatants from these cells were collected at 24 hours post-stimulation and the levels of IFN-γ, IL-2 and TNF were determined by ELISA assays.
Human PBMCs, obtained from two individual human volunteer donors (donor 2 and donor 3), were dispensed at density of 1×10^6 cells/well in a 96-well flat-bottom plate and were stimulated with 1 μg/mL anti-CD3 antibody (UCHT1) and 0.1 μg/mL anti-CD28 antibody (CD28.2) in the presence of:
Human PBMCs, obtained from twelve individual human volunteer donors were dispensed at density of 1×10^6 cells/well in a 96-well flat-bottom plate and were stimulated in triplicate with 1 μg/mL anti-CD3 antibody (UCHT1) and 0.1 μg/mL anti-CD28 antibody (CD28.2) in the presence of:
A total of 44 experiments using PBMC from 12 healthy donors were tested (9 donors for GM-CSF), with each donor tested in 1 to 8 separate experiments, depending on the donor (1 to 4 experiments each for GM-CSF). […] Cytokines were detected in supernatants with the Legendplex (Biolegend) or the MSB (MesoScale) platforms. […] One-way ANOVA with Tukey's post-hoc multiple comparisons correction was performed to identify significant differences (FC, mean fold change; ****, p<0.0001, ***, p<0.001; **, p<0.01; *, p<0.05, ns, not significant).
Human PBMC (1×10^6 cells/well in a 96-well flat-bottom plate) obtained from donor 3 and donor 6 were stimulated with 1 μg/mL anti-CD3 antibody (UCHT1) and 0.1 μg/mL anti-CD28 antibody (CD28.2) in the presence of:
Supernatants from these cells were collected at 24 hours post-stimulation and the levels of IFN-γ, IL-2, and TNF were determined with the MSD platform (MesoScale Discovery).
Human PBMC (1×10^6 cells/well in a 96-well flat-bottom plate) obtained from donor 7 were stimulated with 1 μg/mL […] (UCHT1) and 0.1 μg/mL anti-CD28 antibody (CD28.2) in the presence of:
Supernatants from these cells were collected at 24 hours post-stimulation and the levels of IFN-γ, IL-2, TNF and GM-CSF were determined with the MSD platform (MesoScale Discovery).
Supernatants from these cells were collected at 24 hours post-stimulation and the levels of IFN-γ, IL-2 and TNF were determined with the MSD platform (MesoScale Discovery).

- Fold decrease in Gs signaling activity [1]: 2.8 fold
- EC50 [1]: 5400 nM
Molecule: O=C1CCCC2=C1C(c1cccnc1)C1=C(N2)c2ccccc2C1=O (centres unmarked) [compound 37]

- Fold decrease in Gs signaling activity [1]: 8.6 fold
- EC50 [1]: 2700 nM
Molecule: O=C1CCCC2=C1C(c1ccc([N+](=O)[O-])cc1)C1=C(N2)c2ccccc2C1=O (centres unmarked) [compound 38]

- Fold decrease in Gs signaling activity [1]: 7.8 fold
- EC50 [1]: 3000 nM
Molecule: O=C1CCCC2=C1C(c1ccc(Cl)cc1)C1=C(N2)c2ccccc2C1=O (centres unmarked) [compound 39]

- Fold decrease in Gs signaling activity [1]: 8.8 fold
- EC50 [1]: 3300 nM
Molecule: CS(=O)(=O)c1ccc(C2C3=C(CCCC3=O)NC3=C2C(=O)c2ccccc23)cc1 (centres unmarked) [compound 40]

- Fold decrease in Gs signaling activity [1]: 13.7 fold
- EC50 [1]: 1000 nM
Molecule: CCCOc1ccc(C2C3=C(CCCC3=O)NC3=C2C(=O)c2ccccc23)cc1 (centres unmarked) [compound 41]

- Fold decrease in Gs signaling activity [1]: 5.1 fold
- EC50 [1]: 5200 nM
Molecule: O=C1CCCC2=C1C(c1ccc(N3CCCC3=O)cc1)C1=C(N2)c2ccccc2C1=O (centres unmarked) [compound 43]

- Fold decrease in Gs signaling activity [1]: 4.7 fold
- EC50 [1]: 1300 nM
Molecule: CC(C)(C)Oc1ccc(C2C3=C(CCCC3=O)NC3=C2C(=O)c2ccccc23)cc1 (centres unmarked) [compound 44]

- Fold decrease in Gs signaling activity [1]: 7.6 fold
- EC50 [1]: 1000 nM
Molecule: O=C1CCCC2=C1C(c1ccc(OC3CCCC3)cc1)C1=C(N2)c2ccccc2C1=O (centres unmarked) [compound 45]

- Fold decrease in Gs signaling activity [1]: 8.1 fold
- EC50 [1]: 1200 nM
Molecule: O=C1CCCC2=C1C(c1ccc(OC(F)F)cc1)C1=C(N2)c2ccccc2C1=O (centres unmarked) [compound 46]

- Fold decrease in Gs signaling activity [1]: 7.1 fold
- EC50 [1]: 1000 nM
Molecule: O=C1CCCC2=C1C(c1ccc(Oc3ccccc3)cc1)C1=C(N2)c2ccccc2C1=O (centres unmarked) [compound 47]

- Fold decrease in Gs signaling activity [1]: 5 fold
- EC50 [1]: 1200 nM
Molecule: O=C1CCCC2=C1C(c1ccc(OC(F)(F)F)cc1)C1=C(N2)c2ccccc2C1=O (centres unmarked) [compound 48]

- Fold decrease in Gs signaling activity [1]: 14.3 fold
- EC50 [1]: 600 nM
Molecule: CC(C)Oc1ccc(C2C3=C(CCCC3=O)NC3=C2C(=O)c2ccccc23)cc1 (centres unmarked) [compound 49]

- Fold decrease in Gs signaling activity [1]: 10.1 fold
- EC50 [1]: 1200 nM
Molecule: C=CCOc1ccc(C2C3=C(CCCC3=O)NC3=C2C(=O)c2ccccc23)cc1 (centres unmarked) [compound 50]

- Fold decrease in Gs signaling activity [1]: 1.7 fold
- EC50 [1]: 1600 nM
Molecule: CCOc1cccc(C2C3=C(CCCC3=O)NC3=C2C(=O)c2ccccc23)c1 (centres unmarked) [compound 51]

- Fold decrease in Gs signaling activity [1]: 3.1 fold
- EC50 [1]: 500 nM
Molecule: CCCCCCOc1ccc(C2C3=C(CCCC3=O)NC3=C2C(=O)c2ccccc23)cc1 (centres unmarked) [compound 52]

- Fold decrease in Gs signaling activity [1]: 3.4 fold
- EC50 [1]: 1800 nM
Molecule: O=[N+]([O-])c1cc(F)c(N2CCCCCC2)cc1N1CCN(S(=O)(=O)c2ccccc2)CC1 [compound 53]

B1: ADA: adenosine deaminase, an enzyme that catabolizes adenosine into inosine (protein, UniProt P00813 2-363, looked up)
Adenosine deaminase: AQTPAFDKPKVELHVHLDGSIKPETILYYGRRRGIALPANTAEGLLNVIGMDKPLTLPDFLAKFDYYMPAIAGCREAIKRIAYEFVEMKAKEGVVYVEVRYSPHLLANSKVEPIPWNQAEGDLTPDEVVALVGQGLQEGERDFGVKARSILCCMRHQPNWSPKVVELCKKYQQQTVVAIDLAGDETIPGSSLLPGHVQAYQEAVKSGIHRTVHAGEVGSAEVVKEAVDILKTERLGHGYHTLEDQALYNRLRQENMHFEICPWSSYLTGAWKPDTEHAVIRLKNDQANYSLNTDDPLIFKSTLDTDYQMTKRDMGFTEEEFKRLNINAAKSSFLPEDEKRELLDLLYKAYGMPPSASAGQNL
- IFN-γ, MRS/Veh: ratio in the presence vs. the absence of MRS-1754 ([2]; donor 3): 0.7*
- IL-2, MRS/Veh: ratio in the presence vs. the absence of MRS-1754 ([2]; donor 3): 0.9
- TNF, MRS/Veh: ratio in the presence vs. the absence of MRS-1754 ([2]; donor 3): 0.9
- IFN-γ, ratio relative to vehicle control (Veh column) ([2]; donor 3, no MRS): 1.7* fold
- IL-2, ratio relative to vehicle control (Veh column) ([2]; donor 3, no MRS): 2.2* fold
- TNF, ratio relative to vehicle control (Veh column) ([2]; donor 3, no MRS): 2.2* fold
- IFN-γ, ratio relative to vehicle control (MRS) ([2]; donor 3): 1.1 fold
- IL-2, ratio relative to vehicle control (MRS column) ([2]; donor 3): 1.9* fold
- TNF, ratio relative to vehicle control (MRS column) ([2]; donor 3): 1.9* fold
- IFN-γ, MRS/Veh: ratio in the presence vs. the absence of MRS-1754 ([2]; donor 6): 1.3
- IL-2, MRS/Veh: ratio in the presence vs. the absence of MRS-1754 ([2]; donor 6): 1.0
- TNF, MRS/Veh: ratio in the presence vs. the absence of MRS-1754 ([2]; donor 6): 1.2*
- IFN-γ, ratio relative to vehicle control (Veh column) ([2]; donor 6, no MRS): 1.2 fold
- IL-2, ratio relative to vehicle control (Veh column) ([2]; donor 6, no MRS): 1.3* fold
- TNF, ratio relative to vehicle control (Veh column) ([2]; donor 6, no MRS): 1.2* fold
- IFN-γ, ratio relative to vehicle control (MRS) ([2]; donor 6): 1.5* fold
- IL-2, ratio relative to vehicle control (MRS column) ([2]; donor 6): 1.3* fold
- TNF, ratio relative to vehicle control (MRS column) ([2]; donor 6): 1.4* fold
